{
  "source": "PubChem BioAssay AID977628",
  "about": "(Broad Institute, 2014)",
  "note": "Records with an inconclusive call do not appear. Calls of active or inactive are those of the source.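 How the source made its calls: active means compound lowering the normal-ribosome reporter at least twice as much as the humanized-ribosome reporter, growth loss under a set limit; inconclusive means no clear call, values can overlap the other calls; inactive means the rest.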",
  "data": [
    {"system": "E. coli mixed WT/h24 culture total growth, OD600, 24 h", "assay": "growth of wild-type and h24-humanized E. coli strains – h24 mutant RFP vs wild-type GFP, cherry-pick, dose response (AID 977628)", "units": {"AC50": "µM"}, "values": [
      {"smiles": "CCOC(=O)Cc1nnc(NC(=O)CSc2nc3ccccc3[nH]2)s1", "AC50": "> 100"},
      {"smiles": "Cc1ccc(Cc2c(-c3cccc(Br)c3)nc3ccc(C)cn23)cc1", "AC50": "> 100"},
      {"smiles": "CCOCCCNC(=O)C(NC(=O)c1ccccc1O)c1ccc(C)cc1", "note": "(stereo unspecified)", "AC50": "> 100"},
      {"smiles": "Cc1ccnc(NS(=O)(=O)c2ccc(NC(=O)c3ccc4c(c3)OCCO4)cc2)n1", "AC50": "> 100"},
      {"smiles": "CCOC(=O)CN1C(=O)C(CC)Oc2ccc(Cl)cc21", "note": "(stereo unspecified)", "AC50": "> 100"},
      {"smiles": "Fc1ccc(Br)cc1SCCc1ccncc1", "AC50": "> 100"},
      {"smiles": "CCN(CC)S(=O)(=O)c1ccc(N2CCCC2)c(NC(=O)c2ccccc2OC)c1", "AC50": "> 100"},
      {"smiles": "O=C1OCCC1Sc1nc2ccccc2c(=O)n1Cc1ccccc1", "note": "(stereo unspecified)", "AC50": "> 100"},
      {"smiles": "O=C(NC1CCCCC1)C(c1cccc2ccccc12)n1c(=O)c(-c2ccco2)nc2ccccc21", "note": "(stereo unspecified)", "AC50": "> 100"},
      {"smiles": "O=C(Nc1cccc(S(=O)(=O)c2cccc(NC(=O)C3CC3)c2)c1)C1CC1", "AC50": 46.7},
      {"smiles": "O=C1c2ccccc2CSc2c(O)cccc21", "AC50": "> 100"},
      {"smiles": "COC(=O)c1cc2c(c3c4cc(F)ccc4n(S(=O)(=O)c4cccc(C)c4)c13)C(=O)N(Cc1ccco1)C2", "AC50": "> 100"},
      {"smiles": "COc1ccc(C(=O)NCCC2=CCCCC2)cc1[N+](=O)[O-]", "AC50": "> 100"},
      {"smiles": "CN1OC[C@@H]2CN(C(=O)c3ccco3)[C@H](c3ccc(-c4ccc(C#N)cc4)cc3)C[C@@H]21", "AC50": "> 100"},
      {"smiles": "Nc1ccc2nc(-c3ccc(Cl)cc3)[nH]c2c1", "AC50": "> 100"},
      {"smiles": "O=C(Nc1nc2ccccc2n1CCN1CCOCC1)c1ccccc1", "AC50": "> 100"},
      {"smiles": "C=CCn1c(SCC(=O)Nc2ccc3c(c2)OCCO3)nnc1-c1ccco1", "AC50": "> 100"},
      {"smiles": "CN1CCN(CC(=O)c2cc(C(C)(C)C)c(O)c(C(C)(C)C)c2)CC1", "AC50": "> 100"},
      {"smiles": "O=C(c1cc(S(=O)(=O)N2CCOCC2)ccc1Cl)N1CCc2ccccc2C1", "AC50": "> 100"},
      {"smiles": "O=C(CC1SC(=O)N(Cc2ccccc2Cl)C1=O)Nc1nccs1", "note": "(stereo unspecified)", "AC50": "> 100"},
      {"smiles": "COC(=O)c1sc(C(C)(C)C)cc1CS(=O)(=O)c1ccc(Cl)cc1", "AC50": "> 100"},
      {"smiles": "COc1cccc(NC(=O)COC(=O)Cc2ccc(Br)cc2)c1", "AC50": "> 100"},
      {"smiles": "CC(NC(=O)C12CC3CC(C)(CC(C)(C3)C1)C2)c1ccncc1", "note": "(stereo unspecified)", "AC50": "> 100"},
      {"smiles": "COc1ccccc1-c1noc2ncnc(Nc3ccccc3C)c12", "AC50": "> 100"},
      {"smiles": "S=c1nc(-c2cccc(Br)c2)[nH][nH]1", "AC50": "> 100"},
      {"smiles": "c1ccc(Cc2nc3ccccc3s2)cc1", "AC50": "> 100"},
      {"smiles": "CCOc1ccc(C(C)=O)cc1CN1C(=O)NC2(CCCCCCC2)C1=O", "AC50": "> 100"},
      {"smiles": "NS(=O)(=O)c1cc(C(=O)OCC(=O)Nc2ccccc2[N+](=O)[O-])ccc1Cl", "AC50": "> 100"},
      {"smiles": "Cc1cc(C(C)(C)C)oc1C(=O)N(CC(=O)NC1CCCC1)c1c(C)cccc1C", "AC50": "> 100"},
      {"smiles": "CCCn1c(C(C)Nc2nc(-c3ccc(C)cc3)cs2)nc2ccccc21", "note": "(stereo unspecified)", "AC50": "> 100"},
      {"smiles": "CCOC(=O)c1c(C)[nH]c(C)c1S(=O)(=O)NCCN1CCN(c2ccccc2F)CC1", "AC50": "> 100"},
      {"smiles": "CC(=O)NCCOc1nc(N2CCCCC2)nc(N2CCCCC2)n1", "AC50": "> 100"},
      {"smiles": "O=C(Nc1ccccc1N1CCOCC1)C1CCCCN1S(=O)(=O)c1ccccc1", "note": "(stereo unspecified)", "AC50": "> 100"},
      {"smiles": "Cc1ccc(S(=O)(=O)NC(C)C(=O)NCc2ccc(Cl)cc2)cc1", "note": "(stereo unspecified)", "AC50": "> 100"},
      {"smiles": "Cc1ccc(NC(=O)C2CCN(S(=O)(=O)c3ccc4c(c3)NC(=O)CO4)CC2)cc1", "AC50": "> 100"},
      {"smiles": "CC(=O)c1ccc(OCC(=O)Nc2ccc3c(c2)CCC3)cc1", "AC50": "> 100"},
      {"smiles": "O=C(CN1CCCCC1)n1c2ccccc2c2ccccc21", "AC50": "> 100"},
      {"smiles": "COc1ccc(/C=C/c2nc3ccccc3n2Cc2ccccc2OC)cc1", "AC50": "> 100"},
      {"smiles": "Cc1cccc(C)c1NC(=O)C1(C)CSCC(=O)N1CCOc1ccccc1", "note": "(stereo unspecified)", "AC50": "> 100"},
      {"smiles": "O=C(NCc1ccc2c(c1)OCO2)c1sccc1Br", "AC50": "> 100"},
      {"smiles": "C[C@@H]1CN([C@@H](C)CO)C(=O)c2cc(NC(=O)C3CC3)ccc2O[C@H]1CN(C)C(=O)Nc1ccc(C(F)(F)F)cc1", "AC50": "> 100"},
      {"smiles": "Nc1ccccc1Sc1c[nH]c2ccccc12", "AC50": "> 100"}
    ]},
    {"system": "E. coli WT GFP strain growth, fluorescence, 24 h", "assay": "growth of wild-type and h24-humanized E. coli strains – h24 mutant RFP vs wild-type GFP, cherry-pick, dose response (AID 977628)", "values": [
      {"smiles": "COc1cccc(NC(=O)c2ccc(-c3ccc([N+](=O)[O-])cc3)o2)c1", "AC50": "> 100 µM (inactive)"},
      {"smiles": "O=C1Nc2ccc(F)cc2C12Nc1ccccc1-c1nnc(SCc3ccccc3)nc1O2", "note": "(stereo unspecified)", "AC50": "> 100 µM (inactive)"},
      {"smiles": "O=C(Cc1cccc(NC(=O)C2CCN(C(=O)C3CCCCC3)CC2)c1)Nc1cccc(C(=O)N2CCCC2)c1", "AC50": "> 100 µM (inactive)"},
      {"smiles": "Cc1ccccc1-n1ncc2c1CC(C)(C)CC2NC(=O)CCN1Cc2ccccc2C1=O", "note": "(stereo unspecified)", "AC50": "> 100 µM (inactive)"},
      {"smiles": "Cc1ccc(C(=O)C2CCN(CC(=O)Nc3nc(C)cs3)CC2)cc1", "AC50": "> 100 µM (inactive)"},
      {"smiles": "O=c1[nH]c(C2CCCN(S(=O)(=O)c3ccccc3Cl)C2)nc2c1nnn2Cc1ccc2c(c1)OCCO2", "note": "(stereo unspecified)", "AC50": "> 100 µM (inactive)"},
      {"smiles": "N#Cc1ccc(OCC(=O)N2CCN(S(=O)(=O)c3ccc(Cl)s3)CC2)cc1", "AC50": "> 100 µM (inactive)"},
      {"smiles": "Fc1cccc(Cc2c(-c3ccco3)nc3c4ccccc4ccn23)c1", "AC50": "> 100 µM (inactive)"},
      {"smiles": "CC1(C(=O)NS(=O)(=O)c2ccc3c(c2)CCO3)CCN1C(=O)c1ccccc1CCc1ccccc1", "note": "(stereo unspecified)", "AC50": "> 100 µM (inactive)"},
      {"smiles": "Cc1nn(S(=O)(=O)c2ccc(Cl)cc2)c(C)c1Sc1ccc([N+](=O)[O-])cc1", "AC50": "> 100 µM (inactive)"},
      {"smiles": "O=C(O)c1ccccc1Nc1cc(Cl)c2nonc2c1[N+](=O)[O-]", "AC50": "> 100 µM (inactive)"},
      {"smiles": "COc1ccc(CNc2ccc([N+](=O)[O-])cc2C)cc1", "AC50": "> 100 µM (inactive)"},
      {"smiles": "COc1ccc(C(=O)C2CCCN(C(=O)c3noc4c3CCCC4)C2)cc1F", "note": "(stereo unspecified)", "AC50": "> 100 µM (inactive)"},
      {"smiles": "CC1C=Cc2ccccc2N1C(=O)c1ccccc1", "note": "(stereo unspecified)", "AC50": "> 100 µM (inactive)"}
    ]}
  ]
}
